Literature values as cited in patent US20060251623A1, “Packaged virus-like particles” (priority 2003, published 2006).

Columns and labels:
blood cells = details: Kuramoto E. et al., Japanese Journal Cancer Research 83, 1128-1131 (1992)
[1] = tested on: VLP-induced CTL responses; details: TLR ligand alone compared with CpGs; Schwarz et al., (2003) Eur. J. Immunol., 33, 1465-1470

Molecule | Stimulation of blood cells in vitro (blood cells) | Enhancement of VLP-induced CTL responses [1]
GGGGGGGGGGGACGATCGTCGGGGGGGGGG [SEQ ID NO: 54] | able to stimulate blood cells in vitro | –
CC(C)Cn1cnc2c(N)nc3ccccc3c21 [imiquimode] | – | failed to enhance VLP-induced CTL responses in a way similar to CpGs
polyinosinic-polycytidylic acid [poly (I:C)] | – | failed to enhance VLP-induced CTL responses in a way similar to CpGs
flagellin | – | failed to enhance VLP-induced CTL responses in a way similar to CpGs
